Data as given in patent US8895600B2, “Non peptidic 14-3-3 inhibitors and the use thereof” (Università degli Studi di Siena, priority 2010, dated 2014).

Experiments:
[1] = system: Ba/F3 cells expressing the T315I Bcr-Abl mutation; assay: Clonogenic assay (0.9% methylcellulose), Ba/F3 T315I Bcr-Abl; format: cell-based, murine; details: Ba/F3 p210Bcr-Abl T315I, dose reducing cell clonogenic potential to 50%
Excerpt: (§1) Parental pro-B murine cell line Ba/F3 and clones expressing the wt and T315I and E255K-mutated Bcr-Abl constructs were kindly donated by Michael W Deininger (Department of Hematology and Clinical Oncology, Health and Science University, Cancer Institute, Portland, Oreg., USA). […] Indirect immuno-magnetic labeling (mini-MACS from Milteny Biotech, Bergish Gladback, Germany) was used to isolate CD34+ hematopoietic progenitors from bone marrow samples of 3 CML patients in blast crisis who developed IM resistance. Patient informed consent to use bone marrow samples for our experimental studies was approved by the Ethical Committee of S. Orsola-Malpighi Hospital (Bologna, Italy). The content of CD34+ cells in each sample was measured by cytofluorimetric analysis of CD34 expression with a FacScan (Becton Dickinson, Franklin Land, PI, USA).
(§2) Briefly, the authors assessed the reduction of colony (aggregates containing >50 cells generated in 0.9% methylcellulose supplemented with 30% FCS) number in Bcr-Abl-expressing Ba/F3 cell lines and CD34+ in presence of BV02 increasing doses after 7 or 14 day incubation, respectively, at 37° C. in fully humidified atmosphere and 5% CO2. Linear and non linear regression analyses were used to calculate BV02 LD50 in Bcr-Ablexpressing Ba/F3 cell lines and CD34+ progenitors from CML patients, respectively.
(§3) PI uptake was measured by mean of a FACScan flow cytometer set at >580 nm and a dedicated software (both from Beckton Dickinson, San Jose, Calif., USA). Caspase-8 activity was detected with a commercial kit (Carboxyfluorescein FLICA Apoptosis Detection kits from Immunochemistry Technologies LLC, Bloomington, Minn., USA) according to manufacturer instructions. […] Apoptosis was quantified as the level of fluorescence emitted from FLICA probes bound to caspases. […] Caspase-8 activity was quantified by mean of a dedicated software (DIVA from Becton Dickinson). Cell response to BV-01 and BV-02 was evaluated in clonogenic assays (0.9% methylcellulose additioned with drug scalar doses) (see Methods above for methodological details).

[2] = system: Ba/F3 cells expressing the wild type Bcr-Abl; assay: Clonogenic assay (0.9% methylcellulose), Ba/F3 wt Bcr-Abl; format: cell-based, murine; details: Ba/F3 p210Bcr-Abl WT, dose reducing cell clonogenic potential to 50%
Excerpt: as §1, §2, §3

[3] = system: Ba/F3 Parental cells (lacking Bcr-Abl); assay: Clonogenic assay (0.9% methylcellulose), parental Ba/F3; format: cell-based, murine; details: dose reducing cell clonogenic potential to 50%
Excerpt: (§4) Parental pro-B murine cell line Ba/F3 and clones expressing the wt and T315I and E255K-mutated Bcr-Abl constructs were kindly donated by Michael W Deininger (Department of Hematology and Clinical Oncology, Health and Science University, Cancer Institute, Portland, Oreg., USA). They were maintained in RPMI medium (Gibco, Paisley, 9 JPET#172536 UK) supplemented with 10% FCS (Gibco), 1% I-glutamine (Sigma, St. Louis, Miss., USA) and 10% WEHI 3 conditioned medium as source of IL-3 when required. […] The content of CD34+ cells in each sample was measured by cytofluorimetric analysis of CD34 expression with a FacScan (Becton Dickinson, Franklin Land, PI, USA). […] BV02 cytotoxicy was assayed in clonogenic assays, the best in vitro technique to quantify drug impact on cell reproductive integrity.
as §2, with “Linear and non linear regression analyses were used to calculate BV02 LD50 in Bcr-Ablexpressing Ba/F3 cell lines and CD34+ progenitors from CML patients, respectively.” left out
(§5) Cell cycle distribution was performed on 1×10^6 cells fixed overnight in 70% ethanol and treated with 1 μg/μL 11 JPET#172536 PI and RNAse (Sigma) at 37° C. for 30′. […] Apoptosis was quantified as the level of fluorescence emitted from FLICA probes bound to caspases. […]

[4] = biological target: T1, 14-3-3σ (Homo sapiens, UniProt P31947); assay: Transferred NOE (tr-NOEs) NMR binding experiment; details: 298K; protein concentration 10 fold less than ligand
T1 sequence (P31947 1-248): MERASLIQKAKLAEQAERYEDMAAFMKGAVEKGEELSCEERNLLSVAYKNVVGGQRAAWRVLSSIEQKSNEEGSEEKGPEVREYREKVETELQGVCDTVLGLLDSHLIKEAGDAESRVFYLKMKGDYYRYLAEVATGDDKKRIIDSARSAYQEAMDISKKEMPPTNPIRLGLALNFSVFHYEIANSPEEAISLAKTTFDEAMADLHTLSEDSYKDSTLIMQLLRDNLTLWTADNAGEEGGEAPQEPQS
Protocol: The binding ability of BV-01 was analyzed by transferred Nuclear Overhauser Enhancement experiments (tr-NOEs). Experiments were recorded (at 298K on Bruker Avance 600) both on the free ligand and in the presence of protein in concentration 10 fold less than ligand. In the tr-NOEs experiments, only ligands in fast exchange between the bound and the free form are observed. Since the NOE effects are directly related to the size of the molecule in solution, by binding to the protein, the ligands NOE change in intensity and appearance allowing an easy detection of the binding.

[5] = system: Ba/F3 cells expressing the Bcr-Abl mutation coding for E255K; assay: Clonogenic assay (0.9% methylcellulose), Ba/F3 E255K Bcr-Abl; format: cell-based, murine; details: Ba/F3 p210Bcr-Abl E255K; dose reducing cell clonogenic potential to 50%
Excerpt: as §4
as §2, with “Linear and non linear regression analyses were used to calculate BV02 LD50 in Bcr-Ablexpressing Ba/F3 cell lines and CD34+ progenitors from CML patients, respectively.” left out
as §5

[6] = system: Ba/F3 cells expressing the wild type Bcr-Abl protein; assay: Apoptosis induction, cytofluorimetric Annexin V and PI uptake, wt Bcr-Abl; format: cell-based, murine; details: IM 1 μM for 24 h, BV02 5 μM for 24 h
[7] = system: c-Abl / 14-3-3σ signalling in Ba/F3 cells expressing T315I Bcr-Abl mutation; assay: Western blot and IP/immunoblotting of sub-cellular fractions, T315I Bcr-Abl Ba/F3; format: cell-based, murine
Protocol: as §2, with “respectively. […]” for “respectively.”
Proteins or IP products obtained through overnight incubation with primary antibodies in Buffer D (250 mM NaCl, 15 mM MgCl2 40 mM Hepes, 60 mM glycerophosphate supplemented with protease inhibitors) were resolved in SDSPAGE. […] Signals were visualized by the enhanced chemo-luminescence detection system ECL from Pierce (Rockford, Ill., USA). Signal intensities in single blots obtained from three individual experiments were quantified by mean of a dedicated software (Launch VisionWorks LS, Upland, Calif., USA).
(§6) The statistical significance of differences in signal intensities relative to cell treatments was assessed by mean of paired Student's t-test; p<0.05 was kept as limit for statistical significance.

[8] = system: c-Abl / 14-3-3σ signalling in wt Bcr-Abl-expressing Ba/F3 cells; assay: Western blot and IP/immunoblotting of sub-cellular fractions, wt Bcr-Abl Ba/F3; format: cell-based, murine; details: 24 h, 1 μM IM or 5 μM BV02; for interaction between c-Abl and 14-3-3σ: IP/immunoblotting
Protocol: Nuclear lysates were obtained from naked nuclei recovered from 2×10^7 cells kept in buffer B (10 mM NaCl, 5 mM MgCl2, 10 mM phosphate buffer and 0.1% Tergitol-type detergent NP40 [all from Sigma] supplemente with protease inhibitors) by means of 3 sonication rounds (10′ pulses using a Hight Intensity Ultrasonic Processor/Sonicator from Cole Parmer [Vernon Hills, Ill., USA] equipped with 2 mm tips). Mitochondrial membranes were separated from whole cell lysates by 30′ centrifugation at 14,000 g in 2 mL buffer C (20 mM Hepes pH 7.5, 1.5 mM MgCl2, 10 mM KCl, 1 mM EDTA, 1 mM EGTA, 1 mM dithiothreitol, 0.1% PMS and protease inhibitors in 250 mM sucrose) at 4° C.
Proteins or IP products obtained through overnight incubation with primary antibodies in Buffer D (250 mM NaCl, 15 mM MgCl2 40 mM Hepes, 60 mM glycerophosphate supplemented with protease inhibitors) were resolved in SDSPAGE. Gels were then transferred onto nitrocellulose membranes (Schleicher & Schuel, Dassel, Germany), labelled with primary and secondary antibodies in TBS with 5% BSA (Sigma) and 0.1% Tween20 (Sigma). The antibodies were purchased from Upstate Biotechnology (Lake Placid, N.Y., USA), Cell Signalling (Danvers, Mass., USA) and Santa Cruz Biotechnology (Santa Cruz, Calif., USA). Signals were visualized by the enhanced chemo-luminescence detection system ECL from Pierce (Rockford, Ill., USA). Signal intensities in single blots obtained from three individual experiments were quantified by mean of a dedicated software (Launch VisionWorks LS, Upland, Calif., USA).
as §6

[9] = system: Ba/F3 cells expressing T315I mutation; assay: Apoptosis induction, cytofluorimetric Annexin V and PI uptake, T315I; format: cell-based, murine; details: IM 1 μM for 24 h, BV02 5 μM for 24 h
Protocol: as §2, with “respectively. Apoptosis induction and involved signals were assayed in Bcr-Abl-expressing Ba/F3 cell lines after 24 h exposure to 1 μM IM and 5 μM BV02 by means of cytofluorimetric analysis of Annexin V (Hoffmann-La Roche, Basel, SW) and PI (Sigma) uptake, Western blot and IP/immunoblotting analyses, according to published methods (Mancini, 2009).” for “respectively.”

[10] = system: CD34+ cells from bone marrow of CML patients in blast crisis with T315I mutation; assay: Clonogenic assay on CD34+ progenitors of IM-resistant CML patients; format: cell-based, human; details: three CML patients in blast crisis
Excerpt: as §4, with “required. Indirect immuno-magnetic labeling (mini-MACS from Milteny Biotech, Bergish Gladback, Germany) was used to isolate CD34+ hematopoietic progenitors from bone marrow samples of 3 CML patients in blast crisis who developed IM resistance.” for “required.”
as §2, with “Linear and non linear regression analyses were used to calculate BV02 LD50 in Bcr-Ablexpressing Ba/F3 cell lines and CD34+ progenitors from CML patients, respectively.” left out

CCCCCCOC(=O)c1ccc(Nc2c([N+](=O)[O-])cc(C(=O)O)cc2[N+](=O)[O-])cc1 [BV-01]
LD50 [1]: 1.70 µM | LD50 [2]: 1.41 µM | LD50 [3]: 1.89 µM | tr-NOEs pattern (binding to 14-3-3σ) [4]: weak interaction | LD50 [5]: 1.28 µM

Cc1c(NC(=O)c2cc(C(=O)O)ccc2C(=O)O)c(=O)n(-c2ccccc2)n1C [BV-02]
LD50 [1]: 1.47 µM | LD50 ([1]; listed as BV02): 1.47 ± 0.12 µM | apoptosis induction (impact on survival) [6]: statistically significant impact | c-Abl release from 14-3-3σ, relocation and apoptotic events ([7]; T315I Ba/F3): elecited all above mentioned events | Tyr245 phosphorylation of normal and Bcr-rearranged c-Abl ([7]; T315I Ba/F3 after exposure to BV02): slight increase | LD50 [2]: 1.04 µM | LD50 ([2]; listed as BV02): 1.04 ± 0.09 µM | interaction between c-Abl and 14-3-3σ ([8]; cytoplasm): mediates c-Abl release from 14-3-3σ | interaction between c-Abl and 14-3-3σ ([8]; cytoplasm, listed as BV02): reduction | c-Abl (145 kDa) level ([8]; cytoplasm): reduction | c-Abl interaction with caspase 9 ([8]; cytoplasm): increase | c-Abl phosphorylation at Tyr245 ([8]; cytoplasm): not affected | caspase 9 (p35) and caspase 8 (p18) activated fragments ([8]; cytoplasm): increase | levels of 14-3-3σ ([8]; cytoplasm): left steady | phosphorylation of p210 Bcr-Abl at Tyr245 ([8]; cytoplasm): did not significantly affect | c-Abl (145 and 60 kDa), caspase 9 (p35), caspase 8 (p18) and t-Bid (p15) at mitochondrial membranes ([8]; mitochondrial membranes): significantly raised | c-Abl (145 and 120 kDa) and p27kip1 in the nuclear compartment ([8]; nuclear compartment): significantly increased | apoptosis induction (impact on survival) [9]: statistically significant impact | LD50 [3]: 1.08 µM | cytotoxicity in CD34+ cells (survival curves) [10]: confirmed | LD50 [5]: 1.21 µM

Cc1ccc(NC(=O)c2ccc(CN3CCN(C)CC3)cc2)cc1Nc1nccc(-c2cccnc2)n1 [Imatinib, reference compound]
apoptosis induction (impact on survival) [9]: not on survival of Ba/F3 cells expressing T315I mutation
